This note sets out measurements from ChEMBL document CHEMBL1147821, “P3 and P4 position analysis of vinyl ester pseudopeptide proteasome inhibitors” (Bioorg Med Chem Lett, 2006).

SMILES strings stand for the structures. pIC50: −log10 of the molar value.

For the assay, the target named is T1, Proteasome Macropain subunit MB1 (Homo sapiens, UniProt P28074).
T1 sequence (P28074 whole entry): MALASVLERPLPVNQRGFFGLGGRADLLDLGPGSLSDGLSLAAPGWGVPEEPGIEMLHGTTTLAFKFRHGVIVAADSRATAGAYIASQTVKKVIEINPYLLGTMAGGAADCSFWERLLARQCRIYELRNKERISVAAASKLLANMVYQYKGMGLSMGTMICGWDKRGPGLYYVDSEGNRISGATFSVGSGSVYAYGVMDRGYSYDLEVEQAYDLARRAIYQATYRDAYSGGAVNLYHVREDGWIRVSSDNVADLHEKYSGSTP
Description: Inhibition of chymotrypsin like activity of proteasome
By pIC50 is commonly meant the negative decadic logarithm of the IC50, by convention in mol/L. Low readings indicate a large IC50, high ones a small IC50. Compound `CCOC(=O)/C=C/[C@H](CC(C)C)NC(=O)[C@H](CCC(N)=O)NC(=O)[C@@H](NC(=O)c1cccc(O)c1C)C(C)C` gave a pIC50 of 5.18.

As for `CC(C)C[C@@H](/C=C/S(C)(=O)=O)NC(=O)[C@H](CC(C)C)NC(=O)[C@H](CC(C)C)NC(=O)OCc1ccccc1`, the pIC50 was 7.21.

For `CCOC(=O)/C=C/[C@H](CC(C)C)NC(=O)[C@H](CCC(N)=O)NC(=O)[C@H](Cc1ccccc1)NC(=O)c1cccc(O)c1C`, the pIC50 was 5.65.

As for `CCOC(=O)/C=C/[C@H](CC(C)C)NC(=O)[C@H](CCC(N)=O)NC(=O)[C@@H](NC(=O)[C@@H](N)Cc1ccc(O)cc1)C(C)C`, the pIC50 was 5.36.

Regarding `CCOC(=O)/C=C/[C@H](CC(C)C)NC(=O)[C@H](CCC(N)=O)NC(=O)[C@@H](NC(=O)[C@@H](N)Cc1ccccc1)C(C)C`, the pIC50 is 5.38.
